Results: patent US5721207A, “Method for treatment of pain” (Innapharma, Inc., priority 1995, dated 1998)
Like-named read-outs stand apart in the source and are kept apart here. Ends that are not written are not given here.

How the values were obtained:
[1] = epidural administration; cited from earlier work

Procedure for rat: Intrathecal catheters were surgically implanted in the rats after application of anesthetic (Nembutal, 30 mg/kg, intraperitoneal) 5-7 days prior to the test procedure. The 5-7 day period prior to testing allowed for full recovery from the surgical procedures. […] Each catheter was anchored to the skull with cyanoacrylate adhesive, and the skull was closed with wound clips. The free end of each catheter was heat annealed; when compositions were to be injected via the intrathecal route each composition was introduced therein using a Hamilton needle inserted into the sealed catheter.
Pain sensitivity was assessed using a standard analgesiometric hot plate test (Woolfe and MacDonald (1944) J. Pharmacol. Exp. Ther. 80:300). The hot plate response was determined by placing a rat on a 55° C. copper hot plate enclosed in a plexiglass cylinder.
Because of the technical demands of these experiments, no more than 8-9 rats were tested on a given day. Sufficient animals were studied to obtain 10-11 evaluable rats per test condition. On the study day, animals were tested for baseline hot plate responses, and then received bolus injections of test analgesic or physiological saline (control). Hot plate responses were assessed again at 15 min, 30 min, 1 hr, 3 hr, 6 hr and 24 hr after intrathecal injection of test compound or vehicle control.
Ninety-six (96) rats, ranging in weight from 320 g to 420 g, were used in this study. Catheters were implanted and recovery was allowed for as described hereinabove. […] Drug or saline vehicle doses were administered using Hamilton needles inserted into the catheters, with a dose volumes of 37.5 μL/kg followed by a 10 μL saline catheter wash-out. Baseline (pre-drug) and responses at 15 min, 30 min, 1 hr, 3 hr, 6 hr and 24 hr after drug or vehicle injection were determined.

For “salmon calcitonin: salmon calcitonin, sequence given as SEQ ID No 4 (CSNLSTCVLGKLSQELHKLQTYPRTNTGSGTP; ends and bridges not checked; cysteine pairing not given here)”, the “use as an analgesic in intractable pain” value [1] is given as “the data did not appear to support its use as an analgesic”.

For `CN1CC[C@]23c4c5ccc(O)c4O[C@H]2[C@@H](O)C=C[C@H]3[C@H]1C5.O=S(=O)(O)O` [Morphine, Morphine sulfate], the “Hot Plate Latency (Mean ± SEM)” value (rat; 37.5 μg/kg (49.42 nmol/kg) intrathecal single, 0 hr (baseline)) was 12.81 ± 1.23 s, the “Hot Plate Latency (Mean ± SEM)” value (rat; 37.5 μg/kg (49.42 nmol/kg) intrathecal single, 0.25 hr) was 22.08 ± 2.68 s and the “Hot Plate Latency (Mean ± SEM)” value (rat; 37.5 μg/kg (49.42 nmol/kg) intrathecal single, 0.5 hr) was 20.97 ± 2.56 s. The “Hot Plate Latency (Mean ± SEM)” value (rat; 37.5 μg/kg (49.42 nmol/kg) intrathecal single, 1 hr) was 21.81 ± 2.46 s, the “Hot Plate Latency (Mean ± SEM)” value (rat; 37.5 μg/kg (49.42 nmol/kg) intrathecal single, 3 hr) was 19.97 ± 2.05 s and the “Hot Plate Latency (Mean ± SEM)” value (rat; 37.5 μg/kg (49.42 nmol/kg) intrathecal single, 6 hr) was 14.02 s. The “Hot Plate Latency (Mean ± SEM)” value (rat; 37.5 μg/kg (49.42 nmol/kg) intrathecal single, 24 hr) was 11.33 ± 1.51 s, the “Hot Plate Latency (Mean ± SEM)” value (rat; 75.0 μg/kg (98.84 nmol/kg) intrathecal single, 0 hr (baseline)) was 13.76 ± 1.27 s and the “Hot Plate Latency (Mean ± SEM)” value (rat; 75.0 μg/kg (98.84 nmol/kg) intrathecal single, 0.25 hr) was 22.76 ± 2.43 s. For the same compound, the “Hot Plate Latency (Mean ± SEM)” value (rat; 75.0 μg/kg (98.84 nmol/kg) intrathecal single, 0.5 hr) was 21.86 ± 2.25 s, the “Hot Plate Latency (Mean ± SEM)” value (rat; 75.0 μg/kg (98.84 nmol/kg) intrathecal single, 1 hr) was 19.88 ± 2.04 s and the “Hot Plate Latency (Mean ± SEM)” value (rat; 75.0 μg/kg (98.84 nmol/kg) intrathecal single, 3 hr) was 17.42 ± 1.93 s. For the same compound, the “Hot Plate Latency (Mean ± SEM)” value (rat; 75.0 μg/kg (98.84 nmol/kg) intrathecal single, 6 hr) was 17.66 s, the “Hot Plate Latency (Mean ± SEM)” value (rat; 75.0 μg/kg (98.84 nmol/kg) intrathecal single, 24 hr) was 12.60 ± 1.19 s and the “Hot Plate Latency (Mean ± SEM)” value (rat; 125.0 μg/kg (164.73 nmol/kg) intrathecal single, 0 hr (baseline)) was 13.28 ± 1.35 s. For the same compound, the “Hot Plate Latency (Mean ± SEM)” value (rat; 125.0 μg/kg (164.73 nmol/kg) intrathecal single, 0.25 hr) was 19.4 ± 1.6 s, the “Hot Plate Latency (Mean ± SEM)” value (rat; 125.0 μg/kg (164.73 nmol/kg) intrathecal single, 0.5 hr) was 26.36 ± 4.20 s and the “Hot Plate Latency (Mean ± SEM)” value (rat; 125.0 μg/kg (164.73 nmol/kg) intrathecal single, 1 hr) was 26.83 ± 3.04 s. For the same compound, the “Hot Plate Latency (Mean ± SEM)” value (rat; 125.0 μg/kg (164.73 nmol/kg) intrathecal single, 3 hr) was 21.69 ± 3.62 s, the “Hot Plate Latency (Mean ± SEM)” value (rat; 125.0 μg/kg (164.73 nmol/kg) intrathecal single, 6 hr) was 15.86 s and the “Hot Plate Latency (Mean ± SEM)” value (rat; 125.0 μg/kg (164.73 nmol/kg) intrathecal single, 24 hr) was 13.49 s. For the same compound, the “onset of antinociception/analgesia post-injection” value (rat; intrathecal, all tested doses) was at most 15 min, the “dose relation of hot plate latency” value (rat; intrathecal, all three doses (37.5, 75.0, 125.0 μg/kg)) was “increased hot plate latency in a dose-related fashion” and the “peak levels of analgesia compared with elcatonin” value (rat; intrathecal, doses used in this study) was “generally lower”. For the same compound, the “time of return toward baseline hot plate scores” value (rat; intrathecal, post-injection, particularly lower doses) was at most 6 h.
